± gives the uncertainty stated by the source.
Experiment: xn = mol fraction of the nth substance listed

CN(C)C(=N)NC(=N)N.Cl + O
viscosity [mPa·s]
Conditions	298.15 K	303.15 K	308.15 K	313.15 K	318.15 K
100 kPa, x1 = 0.00018	0.894 ± 0.019	–	–	–	–
100 kPa, x1 = 0.0003598	0.896 ± 0.019	0.803 ± 0.017	–	–	–
100 kPa, x1 = 0.0005412	0.898 ± 0.019	0.805 ± 0.017	0.726 ± 0.015	–	–
100 kPa, x1 = 0.0007212	0.9 ± 0.019	–	–	0.663 ± 0.014	–
100 kPa, x1 = 0.0009	–	–	–	–	0.607 ± 0.013
100 kPa, x1 = 0.0009014	0.902 ± 0.019	0.809 ± 0.017	0.73 ± 0.02	0.665 ± 0.014	–
100 kPa, x1 = 0.001079	0.904 ± 0.019	0.811 ± 0.017	0.732 ± 0.016	0.667 ± 0.014	–
100 kPa, x1 = 0.001259	0.906 ± 0.019	–	0.734 ± 0.016	0.669 ± 0.014	–
100 kPa, x1 = 0.001439	0.908 ± 0.019	0.815 ± 0.017	0.736 ± 0.016	0.671 ± 0.014	–
100 kPa, x1 = 0.001619	0.91 ± 0.019	0.817 ± 0.017	0.738 ± 0.016	0.673 ± 0.014	–
100 kPa, x1 = 0.001798	0.912 ± 0.019	0.819 ± 0.017	0.74 ± 0.016	0.675 ± 0.014	–
100 kPa, x1 = 0.0018	–	–	0.739 ± 0.016	0.675 ± 0.014	0.613 ± 0.013
100 kPa, x1 = 0.0027	–	–	0.75 ± 0.016	0.68 ± 0.014	0.622 ± 0.013
101 kPa, x1 = 0.00011	–	–	0.721 ± 0.02	–	0.597 ± 0.02
101 kPa, x1 = 0.000241	–	–	0.723 ± 0.02	–	0.598 ± 0.02
101 kPa, x1 = 0.000481	–	–	0.726 ± 0.02	–	0.6 ± 0.02
101 kPa, x1 = 0.000722	0.903 ± 0.021	–	0.729 ± 0.02	–	0.601 ± 0.02
101 kPa, x1 = 0.000965	0.907 ± 0.021	–	0.732 ± 0.02	–	0.604 ± 0.02
101 kPa, x1 = 0.00121	0.91 ± 0.021	–	0.735 ± 0.021	–	0.606 ± 0.02

CCCCCCO + CCCCO
Conditions	viscosity [mPa·s]
294.55 K, 100 kPa, x2 = 0.31	3.994

C=C(C)[C@@H]1CC=C(C)CC1 + COC(C)(C)C
298.15 K, 101.33 kPa
Conditions	viscosity [mPa·s]
x2 = 0.0694	0.807 ± 0.007
x2 = 0.1591	0.755 ± 0.007
x2 = 0.257	0.7 ± 0.006
x2 = 0.3599	0.641 ± 0.006
x2 = 0.491	0.572 ± 0.006
x2 = 0.6599	0.486 ± 0.005
x2 = 0.7344	0.449 ± 0.005
x2 = 0.8017	0.418 ± 0.005
x2 = 0.8714	0.386 ± 0.005
x2 = 0.9373	0.356 ± 0.005
x2 = 0.9672	0.344 ± 0.005

CC(C)CC(C)(C)C + c1ccccc1
308.15 K, 101 kPa
Conditions	viscosity [mPa·s]
x1 = 0.0565	0.5093 ± 0.0049
x1 = 0.1062	0.4873 ± 0.0047
x1 = 0.1666	0.4676 ± 0.0046
x1 = 0.2409	0.4496 ± 0.0044
x1 = 0.3214	0.436 ± 0.0044
x1 = 0.412	0.4255 ± 0.0043
x1 = 0.5227	0.4188 ± 0.0043
x1 = 0.6688	0.4174 ± 0.0043
x1 = 0.8154	0.423 ± 0.0045

CC(=O)CC(C)C + CCCCCCCCO
viscosity [mPa·s], 100 kPa
Conditions	x1 = 0.0818	x1 = 0.1616	x1 = 0.2492	x1 = 0.3517	x1 = 0.4411	x1 = 0.5629	x1 = 0.6505	x1 = 0.7501	x1 = 0.8518	x1 = 0.9519
293.15 K	7.68 ± 0.62	6.48 ± 0.52	5.45 ± 0.44	4.46 ± 0.36	3.71 ± 0.3	2.87 ± 0.23	2.32 ± 0.19	1.72 ± 0.14	1.2 ± 0.1	0.76 ± 0.06
303.15 K	5.45 ± 0.44	4.69 ± 0.38	3.97 ± 0.32	3.27 ± 0.26	2.78 ± 0.22	2.19 ± 0.18	1.8 ± 0.15	1.37 ± 0.11	0.97 ± 0.08	0.65 ± 0.05
313.15 K	4 ± 0.32	3.46 ± 0.28	2.97 ± 0.24	2.47 ± 0.2	2.1 ± 0.17	1.67 ± 0.13	1.4 ± 0.11	1.11 ± 0.09	0.82 ± 0.07	0.57 ± 0.05
323.15 K	3 ± 0.24	2.63 ± 0.21	2.28 ± 0.18	1.92 ± 0.15	1.65 ± 0.13	1.34 ± 0.11	1.14 ± 0.09	0.93 ± 0.08	0.71 ± 0.06	0.5 ± 0.04
